Measurements: patent US7018796B2, “Preincubation assay methods” (Shionogi & Co., Ltd., priority 2000, dated 2006)

Target: T1, HCV RNA-dependent RNA polymerase (Hepatitis C virus genotype 1a, UniProt P27958)
T1 construct: HCV RNA-dependent RNA polymerase is encoded in the NS5B (nonstructural protein 5B) region of HCV; made in house; host or cells: insect cells or E. coli
Experiment: Pre-incubation assay method with 3H-UTP (Example 1)
Format: biochemical
Experimental: A HCV RNA-dependent RNA polymerase, template RNA, primer RNA and Mg ion (Mg^2+) are pre-incubated at approximately 25° C. for approximately 1 hour. After that, substrate RNA and a test substance are added to start an enzyme reaction and measure an enzyme activity. IC50 value can be calculated by comparing with an enzyme activity measured in the absence of a test substance as well as the above prior method. An inhibitor can be selected by comparing IC50. An example of a procedure of this method is shown in the later described Example 1.
A cDNA encoding HCV RNA-dependent RNA polymerase was made by use of HCV positive human plasma and HCV RNA-dependent RNA polymerase was expressed using the insect cells or the E. coli. HCV RNA-dependent RNA polymerase in the cell extract was purified by use of an anion exchange chromatography, a heparin affinity chromatography, a polyU affinity chromatography, a cation exchange chromatography and gel filtration chromatography. The purification was performed at 4° C. and Tris buffer (pH 7.5) containing ethylenediaminetetraacetic acid (1 mM), dithiothreitol (10 mM) and glycerol (20%) was used. The enzyme purified was stored at 4° C. until use for the assays.
• 1) The buffer I ^1) (10.5 μl) containing Tris-HCl (100 mM, pH 7.5), MgCl2 (25 mM), dithiothreitol (5 mM), KCl (125 mM) and ethylenediaminetetraacetic acid (5 mM) was transferred to a polypropylene tube and then poly(A)^2) solution (100 μg/ml, 10.5 μl), oligo(U)12 ^3) solution (1 μg/ml, 10.5 μl) and water (8 μl) were added into the tube and mixed. • 2) Next, HCV RNA-dependent RNA polymerase (10.5 μl) was added into the tube and pre-incubated at 25° C. for […]. • 3) The enzyme solution pre-incubated (50 μl) was added to a test compound (5.26 μl/well) dissolved with dimethyl sulfoxide or water in a well of a 96-wells microtiter plate. • 4) Additionally, the buffer II (10.6 μl) containing Tris-HCl (100 mM, pH 7.5), MgCl2 (25 mM), dithiothreitol (5 mM), KCl (125 mM), ethylenediaminetetraacetic acid (5 mM) and UTP • 4) (2.1 μM, 1 μCi ^3H-UTP), was mixed with water (39.4 μl). The mixture (50 μl) was added into the well and mix, and then the enzyme reaction was performed at 25° C. for 30 min. • 5) After enzyme reaction for 30 min, the enzyme reaction was stopped by adding disodium ethylenediaminetetraacetic acid (50 mM, 50 μl). • 6) By use of the cell-harvester, all volume of the enzyme reaction sample was transferred onto a filtermat bound with diethylaminoethyl base (referred to as DEAE-filtermat) and washed twice for 10 sec with sodium phosphate buffer (0.25 M, pH 7.0) and once for 10 sec with de-ionized water. • 7) The DEAE-filtermat was dried at 95° C. for 15 min and transferred into a sample bag with liquid scintillater (10 ml), and then a sample bag was sealed. • 8) The radio activity was measured by a scintillation counter. • 9) The inhibitory rate was calculated from the radioactivity measured (ccpm) as follows. [formula]
The concentration of compound at 50% inhibition (IC50 value) was calculated from the compound concentration used and the inhibitory rate calculated.
When use of a compound at a μg/ml results in A % inhibition and use of a compound at β μg/ml results in B % inhibition on condition of A≧50>B the IC50 value is obtained by the calculation as follows. IC50 (μg/ml)=10^[(50−B)/(A−B)×(log^α^−log^β^)+log^β^]

[1] = with pre-incubation, I-1 0.5 μg/ml, 3′-dUTP 0.7 μM, A 100 μg/ml, B 50 μg/ml, C 25 μg/ml

T1 sequence (P27958 2421-3011): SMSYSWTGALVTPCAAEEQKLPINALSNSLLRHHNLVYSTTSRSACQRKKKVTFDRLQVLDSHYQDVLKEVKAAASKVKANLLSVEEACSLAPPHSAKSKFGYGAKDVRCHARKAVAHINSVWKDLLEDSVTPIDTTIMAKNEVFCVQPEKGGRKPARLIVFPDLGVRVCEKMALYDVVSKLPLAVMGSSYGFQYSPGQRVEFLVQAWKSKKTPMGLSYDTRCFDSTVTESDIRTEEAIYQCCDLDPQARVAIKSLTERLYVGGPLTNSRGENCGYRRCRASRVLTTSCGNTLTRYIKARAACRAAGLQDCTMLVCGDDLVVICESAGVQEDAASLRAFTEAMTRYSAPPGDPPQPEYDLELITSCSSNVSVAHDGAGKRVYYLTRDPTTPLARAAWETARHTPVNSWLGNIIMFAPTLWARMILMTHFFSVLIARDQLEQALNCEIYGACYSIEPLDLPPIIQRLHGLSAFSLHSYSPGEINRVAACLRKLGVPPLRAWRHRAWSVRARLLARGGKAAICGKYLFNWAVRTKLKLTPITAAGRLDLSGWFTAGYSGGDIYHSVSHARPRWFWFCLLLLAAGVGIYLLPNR

Row | Structure (SMILES) | Judgement in the pre-incubation method (positive / negative) (with pre-incubation) | Inhibitory rate (Table 2) [1] [%] | Enzyme inhibition rate in a pre-incubation assay method (FIG. 5) (with pre-incubation, same concentrations as) | inhibition at 100 µg/mL (100 μg/ml, pre-incubation 25° C. 60 min, method of Example 1, read-out: Inhibition rate at a concentration of 100 μg/ml) [%] | IC50 (pre-incubation 25° C. 60 min, method of Example 1) [nM] | inhibition at 0.5 µg/mL (with pre-incubation, I-1 0.5 μg/ml, 3′-dUTP 0.7 μM, A 100 μg/ml, B 50 μg/ml, C 25 μg/ml, read-out: Inhibitory rate (Table 2)) [%]
1 | O=C1NC(=O)C(=Cc2ccc(OCCc3cccc4ccccc34)cc2)C(=O)N1 [Compound B] | negative | 1 | – | – | – | –
2 | Cc1oc(-c2ccccc2)nc1CCOc1ccc(C=C2C(=O)NC(=O)NC2=O)cc1 [Compound A] | negative | 19 | – | – | – | –
3 | O=c1ccn([C@@H]2O[C@H](COP(=O)(O)OP(=O)(O)OP(=O)(O)O)C[C@H]2O)c(=O)[nH]1 [3′-dUTP, 3′-deoxyuridine triphosphate] | – | 79 | does not change | – | – | –
4 | O=C(O)/C(O)=C/C(=O)c1cccc(O)c1 [Compound I-1] | positive result | – | – | > 99 | 1920 | 62
5 | CCCCC1=N/C(=C\c2ccccc2OCC(=O)O)C(=O)N1Cc1ccc(-c2ccccc2-c2nnn[nH]2)cc1 [Compound C] | negative result | 2 | – | – | – | –
